One series concerns Malat1 RNA. Nature of the series: Malat1 RNA expression level after intraventricular administration (target gene suppression effect). In kind it is in vivo, mouse. As to conditions: 7 days. As for the experimental part: Seven-week-old female ICR mice anesthetized with 2.5 to 4% isoflurane were fixed to a brain stereotaxic apparatus. Then, skin between the ears was cut open 2 to 3 cm anteroposteriorly, and perforated 1 mm leftward and 0.2 mm posteriorly from the bregma using a 1 mm diameter drill. A Hamilton syringe was filled with the nucleic acid agent. Through the perforated site, a needle was inserted approximately 3 mm deep. The ASO at a dose of 0.95 nmol (5 μg) per mouse was administered into the left lateral ventricle (n=4 to 7/group). The group to which ASO and TGN-073 were coadministered (hereinafter, the group is referred to as the “ASO/TGN-073 coadministration group”) means that ASO mixed with TGN-073 was administered. The group to which only ASO was administered (hereinafter, the group is referred to as the “ASO single administration group”) means that only ASO was administered without being mixed with TGN-073. The dose of TGN-073 in the ASO/TGN-073 coadministration group was 0.25 mg per mouse. After the intraventricular administration, the skin was sutured with a nylon thread. In addition, mice to which only TGN-073 was administered (hereinafter, the mice are referred to as the “TGN-073 administration group”) and mice to which only PBS was administered (hereinafter, the mice are referred to as the “PBS administration group”) were produced as controls.
A left hippocampus was extirpated from each of the mice at 3 hours or 7 days after the intraventricular administration. Using an IsogenI kit (GeneDesign Inc.), RNA was extracted from the left hippocampus extirpated. A cDNA was synthesized using Transcriptor Universal cDNA Master, DNase (Roche Diagnostics) in accordance with the protocol.
Next, quantitative RT-PCR was performed with TaqMan (Roche Applied Science). Primers used in quantitative RT-PCR were products designed and manufactured by Thermo Fisher Scientific Inc. (formerly known as Life Technologies Corp.) on the basis of the various numbers of genes. Amplification conditions (temperature and time) were as follows: one cycle—95 °C for 15 seconds, 60 °C for 30 seconds, and 72 °C for 1 second—was repeated 40 times. The ratio of the expression amount of Malat1 RNA to the expression amount of Actb mRNA (internal standard gene) was calculated, and a value standardized with respect to the value of the PBS-treated group was determined as a relative Malat1 RNA level.
In this Example, the ASO targeted at Malat1, and used in Example 1 (the ASO described in Table 1) was used. Performed in accordance with Example 1 were: the preparation of a nucleic acid; an in vivo experiment; and the evaluation of the intracerebral ASO concentration (the amount of the nucleic acid delivered to the brain); and the target gene suppression effect. […]

The nature of series [1]: VHH antibody concentration in brain tissue after intraventricular administration (Alexa 647 fluorescence). Format: in vivo. As to conditions: coadministered with VHH antibody (29 μmol/mouse), TGN-073 250 μg/mouse, left hippocampus, left occipital cortex, left basal ganglia, 3 hours. On the procedure:
In this Example, a fluorescence-labeled camelized single domain antibody (VHH antibody; Alpaca anti-Rabbit IgG Nano (VHH) Recombinant Secondary Antibody, Alexa Fluor (trademark)647, #SA5-10327, Invitrogen) alone or in combination with TGN-073 (250 μg/mouse) was intraventricularly administered at a dose of […] to an 8-week-old ICR mouse (female). Hereinafter, the mice to which the VHH antibody alone was intraventricularly administered are referred to as the “VHH antibody single administration group”, and the mice to which the VHH antibody and TGN-073 were intraventricularly administered together are referred to as the “VHH antibody/TGN-073 coadministration group”. Brain tissue samples of the left hippocampus, left occipital cortex, and left basal ganglia were collected from the mice at 3 hours after the intraventricular administration. Using a fluorescence plate reader (M1000Pro, Tecan Group Ltd.), the Alexa 647 fluorescence intensity per brain weight was measured to thereby evaluate the concentration of the VHH antibody in each brain tissue.

The structures appear in SMILES notation.

Regarding `O=S(=O)(Nc1ncccc1OCc1ccccc1)c1ccccc1` [TGN-073, N-(3-benzyloxypyridin-2-yl)-benzene-sulfonamide], the “Target gene (Malat1) suppression effect in the hippocampus vs ASO single administration” value in the series with Malat1 RNA (coadministered with 2′-O-MOE-modified ASO (1.7 nmol, 12.5 μg)) was “an augmentation of the target gene suppression effect”. Also, the “Target gene (Malat1) suppression effect in the hippocampus vs nucleic acid agent alone” value in the series on Malat1 RNA (coadministered with ASO, HDO or Chol-HDO (0.95 nmol), any of the groups) is “marked enhancement”. Further, in the series with Malat1 RNA (coadministered with Malat1-targeting ASO (0.95 nmol), TGN-073 0.25 mg per mouse), the “Suppression effect on the Malat1 gene in the hippocampus vs ASO single administration” value is “markedly enhanced”. In the series with Malat1 RNA (coadministered with Malat1-targeting ASO (1.7 nmol, 12.5 μg)), the “Target gene (Malat1) suppression effect in the lumbar cord portion vs ASO single administration” value is given as “marked enhancement”. For the same compound, the “VHH antibody concentration in the central nervous system vs VHH antibody single administration” value in series [1] is listed as “dramatic increase”.

The values are drawn from US20260347843A1, “NERVOUS SYSTEM DELIVERY ENHANCER” (priority 2022, published 2026).
